Results reported in patent publication US8791267B2, “Biaryl PDE4 inhibitors for treating inflammatory, cardiovascular and CNS disorders” (Decode Genetics EHF, priority 2007, dated 2014).
Structures can show the parent of a compound that is named as a salt. Where two headings read alike, the source gives them in different places.

Key:
[1] = target: PDE4 (Homo sapiens, UniProt Q08499); experiment: In-vitro assay for PDE4 enzymes, real-time enzyme-coupled spectrophotometric assay (Table 9); format: biochemical
[2] = target: PDE4B (Homo sapiens, UniProt Q07343); experiment: In-vitro assay for PDE4 enzymes, real-time enzyme-coupled spectrophotometric assay, PDE4B Activity (Table 10); format: biochemical
[3] = human PDE4D, activity class, Table 9, read-out: hPDE4D
[4] = human PDE4B (hPDE4B), enzyme-coupled spectrophotometric assay, read-out: PDE4B Activity, hPDE4B

Chain of PDE4 (Q08499 whole entry): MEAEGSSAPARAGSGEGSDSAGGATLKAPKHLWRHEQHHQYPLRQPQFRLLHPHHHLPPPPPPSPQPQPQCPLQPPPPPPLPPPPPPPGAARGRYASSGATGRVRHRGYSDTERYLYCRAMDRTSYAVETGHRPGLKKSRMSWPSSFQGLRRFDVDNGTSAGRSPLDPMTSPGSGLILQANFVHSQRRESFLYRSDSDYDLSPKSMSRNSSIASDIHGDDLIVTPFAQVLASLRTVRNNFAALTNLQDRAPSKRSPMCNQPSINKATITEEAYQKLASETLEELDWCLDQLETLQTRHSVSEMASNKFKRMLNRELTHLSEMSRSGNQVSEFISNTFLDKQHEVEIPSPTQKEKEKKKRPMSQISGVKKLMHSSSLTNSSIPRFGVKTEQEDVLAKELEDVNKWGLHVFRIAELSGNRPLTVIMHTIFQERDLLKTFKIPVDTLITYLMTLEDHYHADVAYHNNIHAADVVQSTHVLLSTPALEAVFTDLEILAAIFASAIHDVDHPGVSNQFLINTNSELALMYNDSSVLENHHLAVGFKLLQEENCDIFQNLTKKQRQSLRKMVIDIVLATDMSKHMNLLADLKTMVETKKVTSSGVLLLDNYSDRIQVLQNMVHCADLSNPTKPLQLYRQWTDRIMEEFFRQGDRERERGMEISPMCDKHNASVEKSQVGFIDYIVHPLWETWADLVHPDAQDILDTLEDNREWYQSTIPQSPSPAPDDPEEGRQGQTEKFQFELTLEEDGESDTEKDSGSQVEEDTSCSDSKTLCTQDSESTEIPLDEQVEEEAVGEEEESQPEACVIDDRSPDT
Chain of PDE4B (Q07343 whole entry): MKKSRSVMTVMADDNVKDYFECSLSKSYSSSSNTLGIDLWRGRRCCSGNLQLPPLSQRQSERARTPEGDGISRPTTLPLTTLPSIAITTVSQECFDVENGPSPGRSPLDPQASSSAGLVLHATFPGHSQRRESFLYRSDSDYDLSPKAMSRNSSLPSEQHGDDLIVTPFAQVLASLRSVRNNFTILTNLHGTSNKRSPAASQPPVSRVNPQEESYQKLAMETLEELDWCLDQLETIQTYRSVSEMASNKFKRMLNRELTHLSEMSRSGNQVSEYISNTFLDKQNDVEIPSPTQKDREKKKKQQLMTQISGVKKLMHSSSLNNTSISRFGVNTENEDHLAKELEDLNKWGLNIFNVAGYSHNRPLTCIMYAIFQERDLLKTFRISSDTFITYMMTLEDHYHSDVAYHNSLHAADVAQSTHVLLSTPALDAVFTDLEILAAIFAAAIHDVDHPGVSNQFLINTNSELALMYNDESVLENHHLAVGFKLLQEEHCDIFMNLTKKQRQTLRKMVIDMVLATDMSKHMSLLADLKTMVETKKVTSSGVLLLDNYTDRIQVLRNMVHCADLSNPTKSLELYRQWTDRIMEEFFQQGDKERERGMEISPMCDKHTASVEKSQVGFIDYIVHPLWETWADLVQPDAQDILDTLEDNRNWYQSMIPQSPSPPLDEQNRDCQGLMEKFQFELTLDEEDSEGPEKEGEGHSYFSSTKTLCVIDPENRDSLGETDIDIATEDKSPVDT

| IC50 [1, 3] | IC50 [2, 4] | SMILES | IC50 [1] | IC50 [2] |
| --- | --- | --- | --- | --- |
| < 5 µM | < 5 µM | COc1ccc(Cc2ccncc2)c(O)c1-c1cccc([N+](=O)[O-])c1 [P-017, 6-methoxy-3′-nitro-3-pyridin-4-ylmethyl-biphenyl-2-ol] |  |  |
| < 5 µM | 5 to 20 µM | COc1ccc(Cn2cncn2)cc1-c1ccc2nonc2c1 [P-481, 5-(2-Methoxy-5-[1,2,4]triazol-1-ylmethyl-phenyl)-benzo[1,2,5]oxadiazole] |  |  |
| < 5 µM | 5 to 20 µM | CCOC(=O)N(CC)c1ccc(Cc2ccc(OC)c(-c3cccc(Cl)c3)c2F)cn1 [P-359] |  |  |
| < 5 µM | 5 to 20 µM | COc1ccc(Cn2cncn2)cc1-c1cccc(C#N)c1 [P-081, 2′-Methoxy-5′-[1,2,4]triazol-1-ylmethyl-biphenyl-3-carbonitrile] |  |  |
| < 5 µM | < 5 µM | NC(=O)Nc1ccc(Cc2ccc(OC3CSC3)c(-c3cccc(Cl)c3)c2)cc1 [P-553, {4-[3′-Chloro-6-(thietan-3-yloxy)-biphenyl-3-ylmethyl]-phenyl}-urea] |  |  |
| < 5 µM | < 5 µM | COc1ccc(Cc2csc(N)n2)c(F)c1-c1cccc(Cl)c1 [P-341, 4-(3′-Chloro-2-fluoro-6-methoxy-biphenyl-3-ylmethyl)-thiazol-2-ylamine] |  |  |
| < 5 µM | < 5 µM | CNC(=O)NCc1ccc(Cc2ccc(OC)c(-c3cccc(Cl)c3)c2F)cn1 [P-460, 1-[5-(3′-Chloro-2-fluoro-6-methoxy-biphenyl-3-ylmethyl)-pyridin-2-ylmethyl]-3-methyl-urea hydrochloride] |  |  |
| 5 to 20 µM | 5 to 20 µM | COc1ccc(CN2C(=O)CCCC2=O)cc1-c1cccc([N+](=O)[O-])c1 [P-040, 1-(6-Methoxy-3′-nitro-biphenyl-3-ylmethyl)-piperidine-2,6-dione] |  |  |
| < 5 µM | < 5 µM | COc1ccc(Cc2ccc(CNC(C)=O)c(F)c2)c(F)c1-c1cccc(C(C)=O)c1 [P-329] |  |  |
| < 5 µM | < 5 µM | COc1ccc(Cn2cncn2)cc1-c1cccc(SC)c1 [P-085, 1-(6-Methoxy-3′-methylsulfanyl-biphenyl-3-ylmethyl)-1H-[1,2,4]triazole] |  |  |
| < 5 µM | < 5 µM | COc1ccc(Cc2ccc(OCCN3CCOCC3)cc2)cc1-c1cccc([N+](=O)[O-])c1 [P-171] |  |  |
| < 5 µM | < 5 µM | COc1ccc(Cc2ccc(NS(C)(=O)=O)cc2)c(F)c1-c1cccc(C(C)=O)c1 [P-249] |  |  |
| 5 to 20 µM | 5 to 20 µM | COc1ccc(CN2CCOC2=O)cc1-c1cccc(C(F)(F)F)c1 [P-083] |  |  |
| < 5 µM | < 5 µM | COc1ccc(Cn2cccn2)cc1-c1cccc([N+](=O)[O-])c1 [P-077, 1-(6-Methoxy-3′-nitro-biphenyl-3-ylmethyl)-1H-pyrazole] |  |  |
| < 5 µM | 5 to 20 µM | COc1ccc(Cc2ccc(OCCN(C)C)cc2)cc1-c1cccc([N+](=O)[O-])c1 [P-164] |  |  |
| < 5 µM | < 5 µM | COc1ccc(Cc2ccc(F)cc2O)cc1-c1cccc([N+](=O)[O-])c1 [P-119, 5-Fluoro-2-(6-methoxy-3′-nitro-biphenyl-3-ylmethyl)-phenol] |  |  |
| < 5 µM | < 5 µM | CCNC(=O)Nc1ncc(Cc2ccc(OC)c(-c3cccc(C(C)=O)c3)c2F)cn1 [P-315, 1-[5-(3′-Acetyl-2-fluoro-6-methoxy-biphenyl-3-ylmethyl)-pyrimidin-2-yl]-3-ethyl-urea] |  |  |
| < 5 µM | < 5 µM | COc1ccc(Cc2ccc(O)cc2)c(F)c1-c1cccc(Cl)c1 [P-216] |  |  |
| 5 to 20 µM | 21 to 40 µM | COc1ccc(Cn2cc(C#N)ccc2=O)cc1-c1cccc([N+](=O)[O-])c1 [P-195, 1-(6-Methoxy-3′-nitro-biphenyl-3-ylmethyl)-6-oxo-1,6-dihydro-pyridine-3-carbonitrile] |  |  |
| < 5 µM | 5 to 20 µM | CCNC(=O)Nc1nc(Cc2ccc(OC)c(-c3cccc(Cl)c3)c2F)cs1 [P-346, 1-[4-(3′-Chloro-2-fluoro-6-methoxy-biphenyl-3-ylmethyl)-thiazol-2-yl]-3-ethyl-urea] |  |  |

| IC50 [1, 3] | IC50 [2, 4] | SMILES | IC50 [1] | IC50 [2] |
| --- | --- | --- | --- | --- |
| < 5 µM | 5 to 20 µM | COc1ccc(Cn2ccc(C#N)cc2=O)cc1-c1cccc([N+](=O)[O-])c1 [P-196, 1-(6-Methoxy-3′-nitro-biphenyl-3-ylmethyl)-2-oxo-1,2-dihydro-pyridine-4-carbonitrile] |  |  |
|  |  | COc1ccc(Cc2cccc(OC(N)=O)c2)c(F)c1-c1cccc(Cl)c1 [P-222] | < 5 µM | < 5 µM |
| < 5 µM | < 5 µM | CCNc1ccc(Cc2ccc(OC)c(-c3cccc(Cl)c3)c2F)cn1 [P-318] |  |  |
| < 5 µM | 5 to 20 µM | COc1ccc(Cn2cncn2)cc1-c1cccc(F)c1 [P-058, 1-(3′-Fluoro-6-methoxy-biphenyl-3-ylmethyl)-1H-[1,2,4]triazole] |  |  |
| < 5 µM | < 5 µM | COc1ccc(Cc2ccc(-n3cnnn3)nc2)c(F)c1-c1cccc(Cl)c1 [P-422, 5-(3′-chloro-2-fluoro-6-methoxy-biphenyl-3-ylmethyl)-2-tetrazol-1-yl-pyridine] |  |  |
| 5 to 20 µM | 5 to 20 µM | COc1ccc(C[S+]([O-])c2ccc(F)cc2)cc1-c1cccc([N+](=O)[O-])c1 (centres unmarked) [P-192, 5-(4-Fluoro-benzenesulfinylmethyl)-2-methoxy-3′-nitro-biphenyl] |  |  |
| < 5 µM | < 5 µM | COc1ccc(CN2CCCCC2=O)cc1-c1cccc([N+](=O)[O-])c1 [P-188, 1-(6-Methoxy-3′-nitro-biphenyl-3-ylmethyl)-piperidin-2-one] |  |  |
| < 5 µM | < 5 µM | O=[N+]([O-])c1cccc(-c2c(O)ccc(Cc3ccc(F)cc3)c2F)c1 [P-451] |  |  |
| < 5 µM | 5 to 20 µM | COc1ccc(C(C)(O)c2ccc(NC(N)=O)cc2)c(F)c1-c1cccc(Cl)c1 (centres unmarked) [P-441, {4-[1-(3′-chloro-2-fluoro-6-methoxy-biphenyl-3-yl)-1-hydroxy-ethyl]-phenyl}-urea] |  |  |
| 5 to 20 µM | 5 to 20 µM | COc1ccc(Cn2cc(NC(N)=O)ccc2=O)cc1-c1cccc([N+](=O)[O-])c1 [P-208, [1-(6-Methoxy-3′-nitro-biphenyl-3-ylmethyl)-6-oxo-1,6-dihydro-pyridin-3-yl]-urea] |  |  |
| 5 to 20 µM | < 5 µM | COc1ccc(Cn2ccccc2=O)cc1-c1cccc(Cl)c1 [P-209, 1-(3′-Chloro-6-methoxy-biphenyl-3-ylmethyl)-1H-pyridin-2-one] |  |  |
| < 5 µM | < 5 µM | COc1ccc(Cn2cnc(CO)c2)cc1-c1cccc([N+](=O)[O-])c1 [P-154, [1-(6-Methoxy-3′-nitro-biphenyl-3-ylmethyl)-1H-imidazol-4-yl]-methanol] |  |  |
| < 5 µM | 5 to 20 µM | COc1cc(F)c(C(O)c2ccc(F)cc2)cc1-c1cccc([N+](=O)[O-])c1 (centres unmarked) [P-093, (4-Fluoro-6-methoxy-3′-nitro-biphenyl-3-yl)-(4-fluoro-phenyl)-methanol] |  |  |
| < 5 µM | 5 to 20 µM | O=[N+]([O-])c1cccc(-c2cc(Cc3ccc(Cl)nc3)ccc2O)c1 [P-500] |  |  |
| 5 to 20 µM | 5 to 20 µM | COc1ccc(COc2ccccn2)cc1-c1cccc([N+](=O)[O-])c1 [P-224, 2-(6-Methoxy-3′-nitro-biphenyl-3-ylmethoxy)-pyridine] |  |  |
| < 5 µM | 5 to 20 µM | COc1ccc(Cc2ccc(C(N)=O)cc2)c(F)c1-c1cccc(C(C)=O)c1 [P-305, 4-(3′-Acetyl-2-fluoro-6-methoxy-biphenyl-3-ylmethyl)-benzamide] |  |  |
| < 5 µM | 5 to 20 µM | COc1ccc(Cc2ccc(C(N)=O)cc2)cc1-c1cccc(Cl)c1 [P-240, 4-(3′-Chloro-6-methoxy-biphenyl-3-ylmethyl)-benzamide] |  |  |
| < 5 µM | < 5 µM | COc1ccc(Cc2ccc(NC(N)=O)cc2)c(F)c1-c1cccc(C#N)c1 [P-413] |  |  |
| < 5 µM | < 5 µM | CCNC(=O)N1CCN(c2cc(Cc3ccc(OC)c(-c4cccc(Cl)c4)c3F)ccn2)CC1 [P-519, 4-[4-(3′-Chloro-2-fluoro-6-methoxy-biphenyl-3-ylmethyl)-pyridin-2-yl]-piperazine-1-carboxylic acid ethylamide] |  |  |
| < 5 µM | < 5 µM | COc1ccc(Cc2c(C)nn(CC(F)(F)F)c2C)cc1-c1cccc([N+](=O)[O-])c1 [P-090, 4-(6-Methoxy-3′-nitro-biphenyl-3-ylmethyl)-3,5-dimethyl-1-(2,2,2-trifluoro-ethyl)-1H-pyrazole] |  |  |
